The target in one series is HSV-1 DNA polymerase (Human herpesvirus 1, UniProt P04293). As to the kind of experiment: HSV DNA polymerase assay, HSV-1. The settings on record: activated calf thymus DNA, 30 minutes at 37° C. Type of series: biochemical. How it is done:
(§1) HSV DNA polymerases were assayed as described by Ostrander M., and Cheng Y. C., (1980) BIOCHEM. BIOPHYS. ACTA 609:232-245. The standard assay mixture (total volume 50 uL) contained 25 mM Tris-HCl pH 8, 10 mM MgCl2, 0.5 mM dithiothreitol, 0.5 mg/mL BSA, 200 mM KCl, 100 ug/mL activated calf thymus DNA, 0.1 mM each dATP, dCTP, dGTP, 5 uM [^3 H]dTTP (2 Ci/mmol), 4-5×10-^4 units of enzyme, and different drug concentrations. After incubation at 37° C. for 30 minutes, the reaction mixture was spotted on 2.4 cm Whatman GF/A glass fiber filter discs and trichloroacetic acid-insoluble radioactivity was measured.
(§2) One unit of DNA polymerase activity is defined as the amount of enzyme which catalyzes the incorporation of 1 nanomol of dTMP into activated DNA/30 min. […] IC50 is that concentration (expressed in micromoles) of the novel oligonucleotide which results in 50% inhibition of the enzyme.

Another series has as its target T1, HSV-2 DNA polymerase (Human herpesvirus 2, UniProt P89453).
T1 sequence (P89453 1-1240): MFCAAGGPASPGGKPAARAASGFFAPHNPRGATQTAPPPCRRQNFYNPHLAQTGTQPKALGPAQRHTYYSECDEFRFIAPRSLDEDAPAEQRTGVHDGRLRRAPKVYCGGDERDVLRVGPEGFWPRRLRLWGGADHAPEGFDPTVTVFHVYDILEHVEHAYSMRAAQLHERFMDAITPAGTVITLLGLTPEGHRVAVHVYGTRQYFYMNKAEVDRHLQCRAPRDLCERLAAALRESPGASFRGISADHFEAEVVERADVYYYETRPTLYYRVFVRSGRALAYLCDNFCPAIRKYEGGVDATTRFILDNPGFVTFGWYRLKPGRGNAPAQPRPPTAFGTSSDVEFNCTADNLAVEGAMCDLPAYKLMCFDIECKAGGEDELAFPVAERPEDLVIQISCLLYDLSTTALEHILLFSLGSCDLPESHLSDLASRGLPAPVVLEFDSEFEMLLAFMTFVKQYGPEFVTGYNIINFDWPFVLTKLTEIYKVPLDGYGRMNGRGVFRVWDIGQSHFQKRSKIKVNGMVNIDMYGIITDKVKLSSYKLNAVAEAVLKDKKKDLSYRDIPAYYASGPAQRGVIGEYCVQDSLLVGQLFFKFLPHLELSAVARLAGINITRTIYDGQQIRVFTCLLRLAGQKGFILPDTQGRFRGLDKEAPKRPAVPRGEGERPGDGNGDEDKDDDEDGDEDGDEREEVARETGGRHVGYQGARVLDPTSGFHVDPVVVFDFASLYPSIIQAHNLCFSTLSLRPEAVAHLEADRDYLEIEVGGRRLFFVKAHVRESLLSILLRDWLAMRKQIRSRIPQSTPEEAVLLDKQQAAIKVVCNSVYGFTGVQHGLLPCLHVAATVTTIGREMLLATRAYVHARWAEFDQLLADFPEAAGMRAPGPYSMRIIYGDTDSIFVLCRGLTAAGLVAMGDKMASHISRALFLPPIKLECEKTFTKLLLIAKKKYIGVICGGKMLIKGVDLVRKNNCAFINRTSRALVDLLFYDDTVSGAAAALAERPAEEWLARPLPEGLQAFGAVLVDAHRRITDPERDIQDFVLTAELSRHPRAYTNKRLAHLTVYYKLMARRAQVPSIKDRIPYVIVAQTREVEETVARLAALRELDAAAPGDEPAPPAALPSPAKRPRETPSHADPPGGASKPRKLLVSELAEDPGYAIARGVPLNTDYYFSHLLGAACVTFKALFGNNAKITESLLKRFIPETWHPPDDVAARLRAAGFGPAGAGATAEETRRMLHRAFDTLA
As to the kind of experiment: HSV DNA polymerase assay, HSV-2. Type of series: biochemical. The settings on record: activated calf thymus DNA, 30 minutes at 37° C. How it is done: as §1, §2

Series [1] has as its target T2, HIV-1 reverse transcriptase (RT) (Human immunodeficiency virus type 1 group M subtype B, UniProt P04585).
T2 construct: as a 66 and 51 kDa protein dimer; made in house; host or cells: bacteria
As to the kind of experiment: HIV reverse transcriptase assay, HIV-1. Type of series: biochemical. The settings on record: RNA-dependent enzyme assay, 30 minutes at 37° C. How it is done: HIV-1 reverse transcriptase (RT) was expressed from a recombinant plasmid in bacteria as a 66 and 51 kDa protein dimer as described by D'Aquila R. T. and Summers W. C., (1989) J. ACQUIRED IMMUNE DEFIC SYNDR 2:579-587.
The standard reaction mixture for the RNA-dependent enzyme assays contained in a 50 uL volume: 50 mM Tris-HCl, pH 7.8, 50 mM KCl, 6 mM MgCl2, 0.1 mg/mL heat-inactivated bovine serum albumin, 1 mM dithiothreitol, 0.5 0D260 units/mL template-primer Poly(rC) oligo(dG)12-18, 10 uM [^3 H]dGTP and 3.3×10^-3 units of HIV-1 RT. A unit was defined as the amount of enzyme necessary to incorporate 1 nanomol of [^3 H]dTMP into the Poly(rA)-oligo(dT)10 template in 1.0 min at 37° C. The samples were incubated for 30 minutes at 37° C., and all reactions were carried out in the linear range. Aliquot of 40 uL were spotted on glass fiber filters (Whatman GF/A) and processed for determination of trichloroacetic acid-insoluble radioactivity as described by Cheng Y. C., Dutschman G. E., Bastow K. F., Sarngadharan M. G., and Ting R. Y. C. (1987) J. BIOL CHEM 262:2187-2189. Poly(rA)-oligo(dT)10was used as template-primer.
Table 4 indicates the results obtained in this assay with examplary oligonucleotides of the invention. The oligonucleotides are identified by their respective "compound number".

Series [2] concerns the target T3, HIV-2 reverse transcriptase (Human immunodeficiency virus type 2 subtype A, UniProt P04584).
T3 construct: HIV REVERSE TRANSCRIPTASE ASSAY
As to the kind of experiment: HIV reverse transcriptase assay, HIV-2. Type of series: biochemical. Conditions: RNA-dependent enzyme assay, 30 minutes at 37° C.

The test system of series [3] is Human cytomegalovirus (HCMV), strain AD-169. As to the kind of experiment: In vitro human cytomegalovirus inhibition (plaque) assay in MRC-5 cells. Format: cell-based. The source says:
(§3) Cells MRC-5, an immortalized line of diploid, human ([…]) embryonic lung cells were used. These can be obtained from the American Type Culture Collection, Rockville, Md.
Virus Human cytomegalovirus (HCMV), strain AD-169 were used. These can be obtained from the American Type Culture Collection, Rockville, Md.
Medium Growth medium for the MRC-5 cells consisted of Basal Medium Eagle (BME) (GIBCO BRL, Research Products Division, Life Technologies, Inc., Grand Island, N.Y. was the source of all media) with 10% fetal bovine serum (FBS) (Hyclone Laboratories, Logan Utah), 0.035% NaHCO3. Antibiotics were not used in the growth media. Test medium for dilution of HCMV and for preparation and dilution of compounds for the experiments was DMEM, 2% FBS, 0.1% NaHCO3, 50 μg gentamicin/ml.
All compounds were prepared and diluted to the concentrations indicated in test medium. Growth medium was decanted from established monolayers of MRC-5 cells in 24-well tissue culture plates (Corning Glass Works, Corning, N.Y.). One ml of virus, diluted in test medium, was placed in each well except those to be used for cell controls. One ml of sterile test medium was placed in each of these cell control wells. Virus was allowed to adsorb to the cells while plates were centrifuged at 2200 rpm for 30 minutes at room temperature. Medium was aspirated from each well of the plates and 0.8 ml of the proper compound dilution was placed in each of the test wells (2 wells/dilution). Test medium without compound was added (0.8 ml/well) to each cell control and virus control well. Plates were placed in an incubator at 37° C. in a moist atmosphere of 5% CO2, 95% air until plaques could be distinguished in the virus control wells. […] After 15 minutes, the stain was aspirated, the plates were rinsed in running tap water until the water was clear, and the plates were inverted and dried at room temperature. Plaques were counted by use of a dissecting microscope.
ED50 and CD50 values were calculated by regression analysis of the viral plaque data and the visual cell toxicity data, respectively. […] CD50 is the concentration halfway between those at which 100% and 0% cytotoxicity are seen.

Series [4] can be described thus: Visual cell toxicity in MRC-5 cells (HCMV assay). Format: cell-based. Conditions: human, previous data, read-out: CD50 (cytotoxicity). How it is done: as §3
All compounds were prepared and diluted to the concentrations indicated in test medium. Growth medium was decanted from established monolayers of MRC-5 cells in 24-well tissue culture plates (Corning Glass Works, Corning, N.Y.). One ml of virus, diluted in test medium, was placed in each well except those to be used for cell controls. One ml of sterile test medium was placed in each of these cell control wells. Virus was allowed to adsorb to the cells while plates were centrifuged at 2200 rpm for 30 minutes at room temperature. Medium was aspirated from each well of the plates and 0.8 ml of the proper compound dilution was placed in each of the test wells (2 wells/dilution). Test medium without compound was added (0.8 ml/well) to each cell control and virus control well. Plates were placed in an incubator at 37° C. in a moist atmosphere of 5% CO2, 95% air until plaques could be distinguished in the virus control wells. […] Plaques were counted by use of a dissecting microscope.
ED50 and CD50 values were calculated by regression analysis of the viral plaque data and the visual cell toxicity data, respectively. […]

As a reminder, the IC50 is the point on the concentration scale where inhibition reaches its midpoint. Lower therefore signals inhibition by little substance.

Values after ≈ are worked out from the molar mass of the structure shown. A value given as a limit tells only on which side of the number the result lay.

Chain of HSV-1 DNA polymerase (P04293 whole entry): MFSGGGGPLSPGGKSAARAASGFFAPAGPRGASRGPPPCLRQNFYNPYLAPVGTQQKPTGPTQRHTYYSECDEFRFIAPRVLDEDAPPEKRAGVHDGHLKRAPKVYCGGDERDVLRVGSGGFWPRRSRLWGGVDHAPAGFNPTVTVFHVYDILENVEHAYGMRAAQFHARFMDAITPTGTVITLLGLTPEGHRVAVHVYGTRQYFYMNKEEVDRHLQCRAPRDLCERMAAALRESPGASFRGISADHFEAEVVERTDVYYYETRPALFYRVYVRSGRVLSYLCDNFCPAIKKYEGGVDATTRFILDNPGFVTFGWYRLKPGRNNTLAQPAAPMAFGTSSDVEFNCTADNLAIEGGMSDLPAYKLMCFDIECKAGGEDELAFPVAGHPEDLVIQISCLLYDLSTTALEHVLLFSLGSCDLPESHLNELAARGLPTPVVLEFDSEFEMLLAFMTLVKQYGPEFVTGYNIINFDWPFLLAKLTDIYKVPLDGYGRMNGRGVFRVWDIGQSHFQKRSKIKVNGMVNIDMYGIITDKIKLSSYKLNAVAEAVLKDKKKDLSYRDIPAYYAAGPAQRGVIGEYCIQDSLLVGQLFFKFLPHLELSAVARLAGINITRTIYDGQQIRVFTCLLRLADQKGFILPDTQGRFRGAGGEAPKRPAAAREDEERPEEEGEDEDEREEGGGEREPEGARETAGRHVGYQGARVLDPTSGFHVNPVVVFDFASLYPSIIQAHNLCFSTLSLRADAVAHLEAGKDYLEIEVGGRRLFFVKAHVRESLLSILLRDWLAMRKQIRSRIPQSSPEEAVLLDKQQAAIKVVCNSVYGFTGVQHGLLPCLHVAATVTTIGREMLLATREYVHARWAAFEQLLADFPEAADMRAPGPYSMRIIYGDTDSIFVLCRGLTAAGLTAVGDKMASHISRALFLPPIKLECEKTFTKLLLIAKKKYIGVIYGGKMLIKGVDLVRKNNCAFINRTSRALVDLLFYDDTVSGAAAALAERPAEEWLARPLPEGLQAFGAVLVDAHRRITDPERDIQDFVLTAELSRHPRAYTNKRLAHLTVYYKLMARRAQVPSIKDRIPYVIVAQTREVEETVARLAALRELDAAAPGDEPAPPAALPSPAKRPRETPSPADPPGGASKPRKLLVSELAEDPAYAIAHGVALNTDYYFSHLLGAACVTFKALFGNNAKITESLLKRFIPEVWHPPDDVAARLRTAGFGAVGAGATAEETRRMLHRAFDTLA
T3 sequence (P04584 613-1171 limits assumed): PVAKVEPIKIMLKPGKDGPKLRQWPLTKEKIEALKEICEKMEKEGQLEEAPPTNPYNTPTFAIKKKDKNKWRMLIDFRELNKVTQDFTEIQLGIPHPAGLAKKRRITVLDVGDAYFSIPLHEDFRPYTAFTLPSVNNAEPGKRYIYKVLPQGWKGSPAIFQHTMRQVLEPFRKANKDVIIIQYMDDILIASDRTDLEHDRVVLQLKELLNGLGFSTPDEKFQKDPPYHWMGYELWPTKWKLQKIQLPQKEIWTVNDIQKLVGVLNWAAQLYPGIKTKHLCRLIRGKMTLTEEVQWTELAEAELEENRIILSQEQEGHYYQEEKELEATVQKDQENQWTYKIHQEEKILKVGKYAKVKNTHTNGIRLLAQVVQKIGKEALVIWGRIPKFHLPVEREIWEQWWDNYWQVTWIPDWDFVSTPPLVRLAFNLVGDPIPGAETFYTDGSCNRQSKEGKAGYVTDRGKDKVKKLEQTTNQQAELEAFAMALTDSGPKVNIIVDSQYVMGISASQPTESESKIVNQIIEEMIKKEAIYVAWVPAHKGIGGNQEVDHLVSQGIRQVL

As for 5[dCyd3P(S)(O)]27dCyd [SdC28], the IC50 against HSV-1 DNA polymerase was 30 nM; on HSV-2 DNA polymerase it was 90 nM; in series [1], 15 ± 4 nM; in series [2], 71 ± 11 nM.
With `Nc1nc(O)c2ncn(COC(CO)CO)c2n1` [DHPG, Ganciclovir], the “# of plaques” value in series [3] (0.32 μg/ml) amounted to 39.5; in series [3] (1.0 μg/ml) it was 33.5; in series [3] (3.2 μg/ml) it was 10.5; in series [3] (10 μg/ml), 0.0. Moreover, in series [3] (HCMV, MRC-5 cells), the “Therapeutic Index TI = CD50/ED50” value is above 588. Also, in series [3] (Human betaherpesvirus 5, AD169, MRC5, 0.32 μg/ml, read-out: % reduction (plaques)), the inhibition at 0.32 µg/mL was found to be 14%. Besides, the inhibition at 1 µg/mL in series [3] (Human betaherpesvirus 5, AD169, MRC5, 1.0 μg/ml, read-out: % reduction (plaques)) was 27%. In series [3] (Human betaherpesvirus 5, AD169, MRC5, 3.2 μg/ml, read-out: % reduction (plaques)), the inhibition at 3.2 µg/mL came to 77%. Moreover, the inhibition at 10 µg/mL in series [3] (Human betaherpesvirus 5, AD169, MRC5, 10 μg/ml, read-out: % reduction (plaques)) came out at 100%. In series [3] (Human betaherpesvirus 5, AD169, MRC5, regression analysis of viral plaque data, read-out: ED50 (plaques reduced to 50% of virus controls)), the EC50 amounted to 1.7 µg/mL (≈ 6.66 µM). Moreover, in series [4], the CC50 is above 1000 µg/mL.

Source of the values: patent US5652359A, “Oligonucleotides containing n-methyl thiolated bases having antiviral activity” (Epoch Pharmaceuticals, Inc., priority 1993, dated 1997).
